How the values were obtained:
[1] = xn = mol fraction of the nth substance listed; settings: 101 kPa, Liquid; for speed of sound: Pulse-echo method
[2] = 101 kPa, Liquid; for speed of sound: Pulse-echo method

COC(=O)c1ccccc1 [methyl benzoate] + CCCCCCC
[1]
Settings | mass density, 303.15 K [kg/m3] | mass density, 308.15 K [kg/m3] | mass density, 313.15 K [kg/m3] | speed of sound, 303.15 K [m/s] | speed of sound, 308.15 K [m/s] | speed of sound, 313.15 K [m/s] | viscosity, 303.15 K [mPa·s] | viscosity, 308.15 K [mPa·s] | viscosity, 313.15 K [mPa·s]
x1 = 0.1154 | 715.5 | 711.3 | 708.1 | 1128 | 1108 | 1088 | 0.413 | 0.38 | 0.35
x1 = 0.2273 | 756.4 | 752.4 | 749.1 | 1148 | 1128 | 1108 | 0.467 | 0.43 | 0.401
x1 = 0.335 | 797.1 | 793.1 | 789.8 | 1168 | 1148 | 1128 | 0.533 | 0.494 | 0.458
x1 = 0.439 | 837.7 | 833.9 | 830.5 | 1192 | 1172 | 1152 | 0.627 | 0.575 | 0.529
x1 = 0.5404 | 878.6 | 874.8 | 871.3 | 1220 | 1196 | 1180 | 0.723 | 0.666 | 0.615
x1 = 0.6365 | 918.3 | 914.7 | 911.1 | 1248 | 1228 | 1212 | 0.84 | 0.781 | 0.728
x1 = 0.7324 | 959 | 955.3 | 951.7 | 1276 | 1260 | 1248 | 0.99 | 0.904 | 0.849
x1 = 0.8252 | 999.4 | 995.7 | 992.1 | 1308 | 1296 | 1284 | 1.172 | 1.068 | 0.982
x1 = 0.9133 | 1038.7 | 1034.8 | 1030.9 | 1348 | 1336 | 1324 | 1.404 | 1.284 | 1.15
x1 = 1 | 1078.3 | 1074.4 | 1070.3 | 1380 | 1364 | 1348 | 1.667 | 1.514 | 1.376

COC(=O)c1ccccc1 [methyl benzoate] + CCCCCCCC
[1]
Settings | mass density, 303.15 K [kg/m3] | mass density, 308.15 K [kg/m3] | mass density, 313.15 K [kg/m3] | speed of sound, 303.15 K [m/s] | speed of sound, 308.15 K [m/s] | speed of sound, 313.15 K [m/s] | viscosity, 303.15 K [mPa·s] | viscosity, 308.15 K [mPa·s] | viscosity, 313.15 K [mPa·s]
x1 = 0.129 | 732.2 | 728.8 | 725.3 | 1160 | 1140 | 1124 | 0.522 | 0.484 | 0.447
x1 = 0.2456 | 770 | 766.4 | 762.9 | 1180 | 1160 | 1144 | 0.576 | 0.529 | 0.492
x1 = 0.3586 | 809.2 | 805.5 | 801.8 | 1200 | 1180 | 1164 | 0.644 | 0.596 | 0.556
x1 = 0.4655 | 848.4 | 844.5 | 840.7 | 1220 | 1200 | 1184 | 0.727 | 0.668 | 0.621
x1 = 0.5672 | 887.5 | 883.6 | 879.7 | 1240 | 1224 | 1204 | 0.832 | 0.762 | 0.705
x1 = 0.662 | 925.8 | 921.9 | 918 | 1260 | 1248 | 1228 | 0.936 | 0.857 | 0.788
x1 = 0.7528 | 964.3 | 960.3 | 956.5 | 1284 | 1272 | 1252 | 1.084 | 0.99 | 0.913
x1 = 0.8382 | 1002.3 | 998.1 | 994.3 | 1308 | 1300 | 1280 | 1.245 | 1.125 | 1.033
x1 = 0.9213 | 1040.6 | 1036.4 | 1032.4 | 1340 | 1328 | 1308 | 1.434 | 1.303 | 1.193
x1 = 1 | 1078.3 | 1074.4 | 1070.3 | 1380 | 1364 | 1348 | 1.667 | 1.514 | 1.376

CCCCCCCC [octane]
[2]
Settings | mass density [kg/m3] | speed of sound [m/s] | viscosity [mPa·s]
303.15 K | 693.9 | 1148 | 0.491
308.15 K | 690.4 | 1132 | 0.45
313.15 K | 687 | 1112 | 0.415

CCCCCCCC [octane] + COC(=O)c1ccccc1
[1], x2 = 0
Settings | mass density [kg/m3] | speed of sound [m/s] | viscosity [mPa·s]
303.15 K | 693.9 | 1148 | 0.491
308.15 K | 690.4 | 1132 | 0.45
313.15 K | 687 | 1112 | 0.415
